Source: ChEMBL document CHEMBL1201862, “PubChem BioAssay data set” (2004)
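All cell lines were grown in 96-well plates and treated with compound for 48 hours. The concentration for 50% growth inhibition is given as GI50.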 The source made the active and inactive calls. Cut-off read from the data, not from the text of the source: active = GI50 up to about 1.1 µM and inactive = higher.

Assays:
Experiment in all cases: DTP human tumour cell line panel, 48 h
NCI/ADR-RES = tested on: NCI/ADR-RES
OVCAR-5 = tested on: OVCAR-5
A498 = tested on: A498
DU-145 = tested on: DU-145
SF-268 = tested on: SF-268
HT-29 = tested on: HT-29
Hs-578T = tested on: Hs-578T
UACC-62 = tested on: UACC-62
HL-60 = tested on: HL-60
EKVX = tested on: EKVX
ACHN = tested on: ACHN
HOP-62 = tested on: HOP-62
T47D = tested on: T47D
UO-31 = tested on: UO-31
MDA-MB-231 = tested on: MDA-MB-231
HCT-15 = tested on: HCT-15
MCF7 = tested on: MCF7
COLO 205 = tested on: COLO 205
HCC 2998 = tested on: HCC 2998
HCT-116 = tested on: HCT-116

Row | SMILES | GI50 (NCI/ADR-RES) | GI50 (OVCAR-5) | GI50 (A498) | GI50 (DU-145) | GI50 (SF-268) | GI50 (HT-29) | GI50 (Hs-578T) | GI50 (UACC-62) | GI50 (HL-60) | GI50 (EKVX) | GI50 (ACHN) | GI50 (HOP-62) | GI50 (T47D) | GI50 (UO-31) | GI50 (MDA-MB-231) | GI50 (HCT-15) | GI50 (MCF7) | GI50 (COLO 205) | GI50 (HCC 2998) | GI50 (HCT-116)
1 | NCCC1([N+](=O)[O-])CCNCC1 | > 100 µM (inactive) | > 100 µM (inactive) | > 100 µM (inactive) | > 100 µM (inactive) | > 100 µM (inactive) | > 100 µM (inactive) | > 100 µM (inactive) | > 100 µM (inactive) | > 100 µM (inactive) | > 100 µM (inactive) | > 100 µM (inactive) | > 100 µM (inactive) | > 100 µM (inactive) | > 100 µM (inactive) | > 100 µM (inactive) | > 100 µM | > 100 µM (inactive) | > 100 µM (inactive) | > 100 µM (inactive) | > 100 µM (inactive)
2 | Nc1nncc2[nH]cnc12 | 94 µM (inactive) | 49.3 µM (inactive) | > 62.2 µM (inactive) | > 62.5 µM (inactive) | 50.5 µM (inactive) | 39.4 µM (inactive) | > 78.7 µM (inactive) | 47.3 µM (inactive) | 15 µM (inactive) | 52.1 µM (inactive) | 50.1 µM (inactive) | > 100 µM (inactive) | > 75.9 µM (inactive) | > 100 µM (inactive) | 99.5 µM (inactive) | 44.4 µM | 23.4 µM (inactive) | 24.2 µM (inactive) | > 100 µM (inactive) | 36.6 µM (inactive)
3 | O=C(NC1CCCCC1NC(c1ccccc1)(c1ccccc1)c1ccccc1)C(=O)NC1CCCCC1NC(c1ccccc1)(c1ccccc1)c1ccccc1 (stereo not given) | 81.5 µM (inactive) | > 100 µM (inactive) | 28.9 µM (inactive) | > 100 µM (inactive) | 24 µM (inactive) | > 100 µM (inactive) | 13.6 µM (inactive) | > 10 µM (inactive) | > 100 µM (inactive) | 67.3 µM (inactive) | 92 µM (inactive) | 27.5 µM (inactive) | 60.4 µM (inactive) | 43.6 µM (inactive) | > 100 µM (inactive) | > 100 µM | > 100 µM (inactive) | > 100 µM (inactive) | > 100 µM (inactive) | > 100 µM (inactive)
4 | Fc1cc(F)c(F)c(S)c1F | 19.4 µM (inactive) | > 100 µM (inactive) | 17.5 µM (inactive) | > 100 µM (inactive) | 77.3 µM (inactive) | 92.9 µM (inactive) | 37.5 µM (inactive) | > 100 µM (inactive) | 30.1 µM (inactive) | 25.9 µM (inactive) | > 100 µM (inactive) | > 100 µM (inactive) | > 100 µM (inactive) | > 100 µM (inactive) | 22.1 µM (inactive) | 59.6 µM | > 100 µM (inactive) | > 100 µM (inactive) | 34.4 µM (inactive) | > 100 µM (inactive)
5 | COC(=O)C1=C(OC(=O)/C(=C/c2ccccc2)c2ccc(OC)cc2)C(C(=O)OC)[C@@]2(O)[C@@H](C(=O)OC)[C@H](C)C[C@@H]1[C@@H]2C(=O)OC (stereo not given in full) | > 100 µM (inactive) | 65.6 µM (inactive) | > 100 µM (inactive) | > 100 µM (inactive) | > 100 µM (inactive) | > 100 µM (inactive) | 20.6 µM (inactive) | > 100 µM (inactive) | > 100 µM (inactive) | > 100 µM (inactive) | > 100 µM (inactive) | > 100 µM (inactive) | > 100 µM (inactive) | > 100 µM (inactive) | 18.7 µM (inactive) | > 100 µM | > 100 µM (inactive) | > 100 µM (inactive) | > 100 µM (inactive) | > 100 µM (inactive)
